Common to all, as to assay type: functional
Assay [1] relates to Mus musculus. Description: Antimalarial activity was assessed against Plasmodium berghei in mice (Mus musculus) at 160 mg/kg dosage of the compound; Cure.
For assay [2], the system named is Mus musculus. Description: Antimalarial activity was assessed against Plasmodium berghei in mice (Mus musculus) at 320 mg/kg dosage of the compound; Cure.
The subject of assay [3] is Mus musculus. Briefly: Increase in mean survival time in mice inoculated with Plasmodium berghei days was reported following 40 mg/kg.
Assay [4] concerns Mus musculus. Briefly: Antimalarial activity was assessed against Plasmodium berghei in mice (Mus musculus). Increase in mean survival time in days was reported, at 80 mg/kg dosage of the compound.
In assay [5] the test system is Mus musculus. Briefly: Antimalarial activity was assessed against Plasmodium berghei in mice (Mus musculus) at 640 mg/kg dosage of the compound; Cure.
The test system of assay [6] is Mus musculus. Description: Antimalarial activity was assessed against Plasmodium berghei in mice (Mus musculus). Increase in mean survival time in days was reported at 160 mg/kg dosage of the compound.
Assay [7] has as its system Mus musculus. Briefly: Antimalarial activity was assessed against Plasmodium berghei in mice (Mus musculus). Increase in mean survival time in days was reported at 640 mg/kg dosage of the compound.
For assay [8], the system named is Mus musculus. Description: Antimalarial activity was assessed against Plasmodium berghei in mice (Mus musculus) at 80 mg/kg dosage of the compound; Cure.
The subject of assay [9] is Mus musculus. Briefly: Antimalarial activity was assessed against Plasmodium berghei in mice (Mus musculus). Increase in mean survival time in days was reported at 320 mg/kg dosage of the compound.
The test system of assay [10] is Mus musculus. Description: Antimalarial mice (Mus musculus) at 320 mg/kg dosage of the compound; Cure.
For assay [11], the system named is Mus musculus. Briefly: Antimalarial activity was assessed against Plasmodium berghei in mice (Mus musculus) at 40 mg/kg dosage of the compound; Cure.

On to `C/C(=N\N=C(/S)N(C)C1CCCCC1)c1nccc2ccccc12`, for which the No. of cures with Mus musculus [1] and in the assay on Mus musculus [2] was 3 count throughout. In addition, the figures for the “Increase in mean survival time” value in the assay with Mus musculus [3] and with Mus musculus [4] were 9.5 days and 7.9 days, respectively.

For `C/C(=N\N=C(/S)N1CC(C)OC(C)C1)c1nccc2ccccc12` (stereo not given), the No. of cures turned out to be 1 in the assay with Mus musculus [5], 3 count with Mus musculus [1] and 3 count in the assay on Mus musculus [2]. Also, the entries for the “Increase in mean survival time” value in the assay on Mus musculus [3] and in the assay with Mus musculus [4] were 3.5 days and 8.6 days, respectively.

As to `CC(N/N=C(\S)NCc1ccccc1)c1nccc2ccccc12` (stereo not given), the Mean survival time is 0.9 days with Mus musculus [6] and 0.1 days with Mus musculus [7]. In addition, the “Increase in mean survival time” value with Mus musculus [3] was determined as 0.3 days.

Turning to `C/C(=N\N=C(/S)N1CCC(c2ccccc2)CC1)c1nccc2ccccc12`, the No. of cures in the assay on Mus musculus [5] worked out at 4; with Mus musculus [1] it was 1 count; with Mus musculus [2], 1 count. Also, the “Increase in mean survival time” value with Mus musculus [3] was found to be 2.7 days; with Mus musculus [4] it was 5.7 days.

Turning to `CC(N/N=C(\S)N1CCC(c2ccccc2)CC1)c1nccc2ccccc12` (stereo not given), the values for the No. of cures with Mus musculus [5], in the assay on Mus musculus [1] and with Mus musculus [2] were 4, 2 count and 1 count, respectively. The “Increase in mean survival time” value with Mus musculus [3] was determined as 1.6 days; with Mus musculus [4], 1 days.

Regarding `C/C(=N\N=C(/S)N1CCCCCC1)c1nccc2ccccc12`, the No. of cures in the assay with Mus musculus [5] worked out at 1; with Mus musculus [1] it was 1 count; with Mus musculus [2], 2 count. Besides, the “Increase in mean survival time” value in the assay on Mus musculus [3] was 7.8 days; in the assay with Mus musculus [4], 6.9 days.

With `C/C(=N\N=C(/S)N(C)C)c1nccc2ccccc12`, the Mean survival time in the assay on Mus musculus [6] came to 9.2 days. The compound further had a No. of cures in the assay with Mus musculus [8] of 1. Also, in the assay with Mus musculus [3], the “Increase in mean survival time” value stood at 7.3 days.

Turning to `CC(N/N=C(\S)N1CCN(c2ccccn2)CC1)c1nccc2ccccc12` (stereo not given), the values for the Mean survival time with Mus musculus [9] and with Mus musculus [6] were 7.7 days and 6.6 days, respectively. The No. of cures in the assay on Mus musculus [5] worked out at 3. The “Increase in mean survival time” value stood at 1.6 days in the assay with Mus musculus [3] and 2.7 days with Mus musculus [4].

In the assay on Mus musculus [1], `CC(N/N=C(\S)N(C)C)c1nccc2ccccc12` (stereo not given) returned a No. of cures of 2 count. The “Increase in mean survival time” value with Mus musculus [3] was found to be 6.2 days.

`CC1CCN(/C(S)=N/NC(C)c2nccc3ccccc23)CC1` (stereo not given): in the assay with Mus musculus [1], the No. of cures worked out at 3 count. For the same compound, the “Increase in mean survival time” value was 7.6 days in the assay with Mus musculus [3] and 8.9 days with Mus musculus [4].

With `CC(N/N=C(\S)N1CCCCCC1)c1nccc2ccccc12` (stereo not given), the No. of cures in the assay with Mus musculus [10] was determined as 2 count; in the assay on Mus musculus [5] it was 2; in the assay on Mus musculus [1] it was 3 count. The “Increase in mean survival time” value in the assay on Mus musculus [3] stood at 5.1 days; in the assay on Mus musculus [4] it was 7.1 days.

Regarding `CC(N/N=C(\S)N(C)C1CCCCC1)c1nccc2ccccc12` (stereo not given), the No. of cures was 3 count in the assay with Mus musculus [8]; 1 with Mus musculus [5]; 2 count in the assay on Mus musculus [1]; 1 count in the assay with Mus musculus [2]; 2 count with Mus musculus [11].

As for `CC(N/N=C(\S)N1CCCC1)c1nccc2ccccc12` (stereo not given), the No. of cures turned out to be 1 in the assay on Mus musculus [5], 3 count with Mus musculus [1] and 3 count in the assay on Mus musculus [2]. Further, the “Increase in mean survival time” value in the assay with Mus musculus [3] came to 5.1 days; with Mus musculus [4], 7.1 days.

Regarding `C/C(=N\N=C(/S)N1CCC(C)CC1)c1nccc2ccccc12`, the No. of cures with Mus musculus [8] was 1 count; in the assay on Mus musculus [1], 2 count. For the same compound, the “Increase in mean survival time” value in the assay with Mus musculus [3] was 1 days.

As to `C/C(=N\N=C(/S)N1CCCC1)c1nccc2ccccc12`, the No. of cures in the assay on Mus musculus [1] and in the assay with Mus musculus [2] was 2 count in each case. The figures for the “Increase in mean survival time” value in the assay on Mus musculus [3] and with Mus musculus [4] were 3.5 days and 2 days, respectively.

`CC(N/N=C(\S)N1CC2CCC(CC2)C1)c1nccc2ccccc12` (stereo not given): the No. of cures with Mus musculus [8] was 1 count; in the assay with Mus musculus [5], 3; in the assay with Mus musculus [1], 5 count; in the assay on Mus musculus [2], 4 count. For the same compound, in the assay on Mus musculus [3], the “Increase in mean survival time” value turned out to be 9.7 days.

On to `CC1CN(/C(S)=N/NC(C)c2nccc3ccccc23)CC(C)O1` (stereo not given), for which the No. of cures in the assay on Mus musculus [5] came to 2; in the assay with Mus musculus [1], 2 count; in the assay on Mus musculus [2], 3 count. In addition, the “Increase in mean survival time” value with Mus musculus [3] amounted to 5.9 days; in the assay on Mus musculus [4], 5.7 days.

`C/C(=N\N=C(/S)N1CC2CCC(CC2)C1)c1nccc2ccccc12`: the No. of cures was determined as 3 count with Mus musculus [8]; 5 with Mus musculus [5]; 5 count with Mus musculus [1]; 5 count in the assay with Mus musculus [2]; 2 count with Mus musculus [11].

With `C/C(=N\N=C(/S)NCc1ccccc1)c1nccc2ccccc12`, the values for the Mean survival time in the assay with Mus musculus [6] and with Mus musculus [7] were 0.9 days and 0.5 days, respectively. In addition, in the assay with Mus musculus [3], the “Increase in mean survival time” value is 0.1 days.

Values taken from ChEMBL document CHEMBL1122602, “2-Acetylpyridine thiosemicarbazones. 8. Derivatives of 1-acetylisoquinoline as potential antimalarial agents” (1984).
